Laboratory results published in patent US20250108032A1, “METHODS OF TREATING TYPE 1 DIABETES AND KIDNEY DISEASE” (LEXICON PHARMACEUTICALS, INC., priority 2023, published 2025).

Assays:
[1] = system: adult patients with type 1 diabetes mellitus (overall and CKD cohorts); assay: Pooled inTandem1 and inTandem2 double-blind clinical studies, sotagliflozin adjunct to optimized insulin; type: in vivo, human; settings: for No Weight Gain at Week 52, HbA1c <7.0%: Absolute difference in % / No Weight Gain at Week 52, reduction in HbA1c ≥0.5%: Absolute difference in % / No Weight Gain at Week 52: % with absolute reduction in HbA1c ≥0.5% / No Weight Gain at Week 52: Percentage HbA1c <7.0% / Weight, LS Mean (SE) kg: Percent Change (%) from Baseline at Week 24 / Weight, LS Mean (SE) kg: Percent Change (%) from Baseline at Week 52 / Weight, LS Mean (SE): Treatment Comparison vs. PBO, Week 24 / Weight, LS Mean (SE): Treatment Comparison vs. PBO, Week 52 / Any TEAE, n (%) / Diarrhea, n (%) / Genital mycotic infection, n (%) / HbA1c change from Baseline, Week 52 Treatment Comparison LS Mean (SE), %: overall cohort; for HbA1c change from Baseline, Week 24 Treatment Comparison LS Mean (SE), % / HbA1c change from Baseline, Week 52 Treatment Comparison LS Mean (SE), %: vs placebo
Method: The efficacy of sotagliflozin as adjunct therapy in adult patients with type 1 diabetes mellitus who have inadequate glycemic control with insulin therapy was evaluated in two multicenter, double-blind clinical studies named “in Tandem1” and “in Tandem2”. Patients were randomized into three treatment groups: those treated with sotagliflozin 200 mg/day, those treated with sotagliflozin 400 mg/day; and those treated with placebo.
Details of the in Tandem1 study have been reported. See, e.g., Buse, J. B., et al., “Sotagliflozin in Combination With Optimized Insulin Therapy in Adults With Type 1 Diabetes: The North American in Tandem1 Study” Diabetes Care 2018; 41: 1970-1980. Details of the in Tandem2 study have also been reported. See, e.g., Danne. T., et al., “HbA and Hypoglycemia 1c Reductions at 24 and 52 Weeks With Sotagliflozin in Combination With Insulin in Adults With Type 1 Diabetes: The European in Tandem2 Study” Diabetes Care 2018; 41: 1981-1990. Both studies included men and nonpregnant women aged≥18 years with T1D using either multiple daily injections (MDI) or subcutaneous insulin infusion (SCII) for insulin delivery and whose HbA1C was 7.0-11.0% at screening. Patients with β-hydroxybutyrate (BHB) levels>0.6 mmol/L at screening were excluded.
In both studies, insulin therapy was optimized for six weeks prior to randomization, and optimized insulin continued until the study conclusion at week 52. After a two-week placebo run-in, patients were randomly assigned to double-blind treatment with sotagliflozin 200 or 400 mg or placebo for 52 weeks. Insulin optimization, which refers to the adjustment of insulin to meet standard-of-care glycemic targets, starting six weeks prior to randomization and continued for the entire study. An independent insulin dose monitoring committee (IDMC) assessed standard-of-care adherence and provided feedback to the principal investigator if deviations from standard of care were observed prior to week 24. HbA1c was masked to study staff during this period. Between week 24 and 52, insulin optimization continued without input from the IDMC, and HbA1c values were unmasked. Safety was monitored for 30 days after the last dose of study medication.
The primary endpoint of both studies was the change from baseline to week 24 in glycated hemoglobin A1C of either dose of sotagliflozin (400 mg or 200 mg) treatment group compared to placebo. Other endpoints included the change from baseline of sotagliflozin versus placebo in: the proportion of patients with A1C<7.0% and no episode of severe hypoglycemia and no episode of DKA; body weight, bolus insulin dose, fasting plasma glucose (FPG), diabetes treatment satisfaction questionnaire status (DTSQs) score; and Diabetes Distress Screening Scale (DDS2) questionnaire score.
Efficacy analyses were based on the mITT (modified Intent-to-Treat) population. Primary efficacy analyses were conducted based on data collected during the Core Treatment Period (Baseline through and including the week 24 visit assessments). As shown below in Table 2, sotagliflozin achieved its primary endpoint by leading to statistically significant lower A1C levels for both doses when compared to placebo in the pooled in Tandem1/in Tandem2 study results after the core treatment and long-term extension periods.

[2] = system: patients with type 1 diabetes receiving insulin therapy (overall and CKD cohorts); assay: inTandem3 phase 3, double-blind trial, sotagliflozin 400 mg per day vs placebo for 24 weeks; type: in vivo, human; settings: for placebo-adjusted systolic blood pressure, least-squared mean change: after 16 weeks; for DKA, HR (95% CI) / Severe hypoglycemia, HR (95% CI): 400 mg/day vs placebo
Method: The in Tandem3 study was a phase 3, double-blind trial conducted at 133 centers worldwide. In the study, 1402 patients with type 1 diabetes who were receiving treatment with insulin therapy (pump or injections) were randomly assigned to receive sotagliflozin (400 mg per day) or placebo for 24 weeks. The primary end point was a glycated hemoglobin level lower than 7.0% at week 24 with no episodes of severe hypoglycemia or diabetic ketoacidosis after randomization. Secondary end points included the change from baseline in glycated hemoglobin level, weight, systolic blood pressure, and mean daily bolus dose of insulin. Specific details of the study were reported in Garg, S. K., et al., “Effects of Sotagliflozin Added to Insulin in Patients with Type 1 Diabetes” N. Engl. J. Med. 2017:377:2337-48.
The rate of severe hypoglycemia was similar in the sotagliflozin group and the placebo group (3.0% [21 patients] and 2.4% [17 patients], respectively). […] The rate of DKA was higher in the sotagliflozin group than in the placebo group (3.0% [21 patients] and 0.6%, respectively). Id. at 2337.
For this invention, data from CKD patients were compared to those of the overall cohort. As shown below, 16% of patients had CKD at baseline: […]

T1D patients = settings: cited from earlier work
[3] = 200 mg/day vs placebo, CKD Cohort, 52 weeks
[4] = 200 mg/day vs placebo, Overall Cohort, 52 weeks
[5] = 200 mg/day, CKD Cohort N = 85, 52 weeks
[6] = 200 mg/day, overall cohort N = 524, positively adjudicated, through 52 Weeks
[7] = 400 mg/day vs placebo, CKD Cohort, 52 weeks
[8] = 400 mg/day vs placebo, Overall Cohort, 52 weeks
[9] = 400 mg/day, CKD Cohort N = 76, 52 weeks
[10] = 400 mg/day, overall cohort N = 525, positively adjudicated, through 52 Weeks
[11] = 400 mg per day, overall population
[12] = 400 mg/day, CKD Cohort N = 115, 24 weeks

CCOc1ccc(Cc2cc([C@@H]3O[C@H](SC)[C@@H](O)[C@H](O)[C@H]3O)ccc2Cl)cc1 [sotagliflozin, (2S,3R,4R,5S,6R)-2-(4-chloro-3-(4-ethoxybenzyl)phenyl)-6-(methylthio)tetrahydro-2H-pyran-3,4,5-triol]
No Weight Gain at Week 52, HbA1c <7.0%: Absolute difference in % ([1]; 200 mg/day vs PBO): 12.6% | No Weight Gain at Week 52, reduction in HbA1c ≥0.5%: Absolute difference in % ([1]; 200 mg/day vs PBO): 14.9% | DKA, HR (95% CI) [1, 3]: 3.2 (0.4, 29.0) | Severe hypoglycemia, HR (95% CI) [1, 3]: 0.34 (0.13, 0.91) | DKA, HR (95% CI) [1, 4]: 15.0 (2.0, 113.3) | Severe hypoglycemia, HR (95% CI) [1, 4]: 0.76 (0.47, 1.22) | DKA, n (%) [1, 5]: 4 (4.7) n (%) | Severe hypoglycemia, n (%) [1, 5]: 6 (7.1) n (%) | No Weight Gain at Week 52: % with absolute reduction in HbA1c ≥0.5% ([1]; 200 mg/day): 23.7% | No Weight Gain at Week 52: Percentage HbA1c <7.0% ([1]; 200 mg/day): 21.8% | Weight, LS Mean (SE) kg: Percent Change (%) from Baseline at Week 24 ([1]; 200 mg/day): −1.70 (0.137) % | Weight, LS Mean (SE) kg: Percent Change (%) from Baseline at Week 52 ([1]; 200 mg/day): −2.31 (0.208) % | Weight, LS Mean (SE): Treatment Comparison vs. PBO, Week 24 ([1]; 200 mg/day): −2.17 (0.188) % | Weight, LS Mean (SE): Treatment Comparison vs. PBO, Week 52 ([1]; 200 mg/day): −3.21 (0.291) % | DKA, n (%) [1, 6]: 15 (2.9) n (%) | Severe hypoglycemia, n (%) [1, 6]: 30 (5.7) n (%) | HbA1c change from Baseline, Week 24 Treatment Comparison LS Mean (SE), % ([1]; 200 mg/day, overall cohort n = 524): −0.36% | Any TEAE, n (%) ([1]; 200 mg/day, through 52 Weeks): 393 (75.0) n (%) | Diarrhea, n (%) ([1]; 200 mg/day, through 52 Weeks): 34 (6.5) n (%) | Genital mycotic infection, n (%) ([1]; 200 mg/day, through 52 Weeks): 48 (9.2) n (%) | HbA1c change from Baseline, Week 52 Treatment Comparison LS Mean (SE), % ([1]; 200 mg/day): −0.23% | No Weight Gain at Week 52, HbA1c <7.0%: Absolute difference in % ([1]; 400 mg/day vs PBO): 17.0% | No Weight Gain at Week 52, reduction in HbA1c ≥0.5%: Absolute difference in % ([1]; 400 mg/day vs PBO): 20.0% | DKA, HR (95% CI) [1, 7]: 1.9 (0.2, 20.8) | Severe hypoglycemia, HR (95% CI) [1, 7]: 0.2 (0.06, 0.70) | DKA, HR (95% CI) [1, 8]: 20.3 (2.7, 151.2) | Severe hypoglycemia, HR (95% CI) [1, 8]: 0.58 (0.35, 0.97) | DKA, n (%) [1, 9]: 2 (2.6) n (%) | Severe hypoglycemia, n (%) [1, 9]: 3 (3.9) n (%) | No Weight Gain at Week 52: % with absolute reduction in HbA1c ≥0.5% ([1]; 400 mg/day): 28.8% | No Weight Gain at Week 52: Percentage HbA1c <7.0% ([1]; 400 mg/day): 26.1% | Weight, LS Mean (SE) kg: Percent Change (%) from Baseline at Week 24 ([1]; 400 mg/day): −2.55 (0.137) % | Weight, LS Mean (SE) kg: Percent Change (%) from Baseline at Week 52 ([1]; 400 mg/day): −3.33 (0.209) % | Weight, LS Mean (SE): Treatment Comparison vs. PBO, Week 24 ([1]; 400 mg/day): −3.02 (0.188) % | Weight, LS Mean (SE): Treatment Comparison vs. PBO, Week 52 ([1]; 400 mg/day): −4.24 (0.291) % | DKA, n (%) [1, 10]: 20 (3.8) n (%) | Severe hypoglycemia, n (%) [1, 10]: 23 (4.4) n (%) | HbA1c change from Baseline, Week 24 Treatment Comparison LS Mean (SE), % ([1]; 400 mg/day, overall cohort n = 525): −0.38% | Any TEAE, n (%) ([1]; 400 mg/day, through 52 Weeks): 390 (74.3) n (%) | Diarrhea, n (%) ([1]; 400 mg/day, through 52 Weeks): 46 (8.8) n (%) | Genital mycotic infection, n (%) ([1]; 400 mg/day, through 52 Weeks): 63 (12.0) n (%) | HbA1c change from Baseline, Week 52 Treatment Comparison LS Mean (SE), % ([1]; 400 mg/day): −0.32% | efficacy (A1C, body weight, DTSQ change from baseline) by BMI subgroup ([1]; patients with BMI≥27 kg/m^2 compared to the lower BMI subgroup, Week 24): systematically better | relative risk of severe hypoglycemia ([1]; sotagliflozin compared to placebo in the CKD cohort): lower | relative risk of DKA ([1]; sotagliflozin relative to placebo in the CKD cohort): not significantly higher | A1C and BW in the CKD subgroup ([1]; to a similar extent as the overall cohort): significantly reduced | placebo-adjusted systolic blood pressure, least-squared mean change ([2]; 400 mg per day, CKD group, SE=1.81): −7.1 mm Hg | placebo-adjusted change in HbA1C, least-squared mean ([2]; 400 mg per day, CKD group, after 24 weeks, SE=0.120): −0.46% | placebo-adjusted change in body weight, least-squared mean ([2]; 400 mg per day, CKD group, after 24 weeks, SE=0.464): -2.82 kg | number of patients achieving the primary end point ([2]; 400 mg per day, of 699 patients): 200 patients | mean daily bolus dose of insulin, least-squares mean change from baseline, difference vs placebo [2, 11]: −2.8 units per day | proportion of patients achieving the primary end point (glycated hemoglobin lower than 7.0% at week 24 with no severe hypoglycemia or DKA) [2, 11]: 28.6% | systolic blood pressure, least-squares mean change from baseline, difference vs placebo [2, 11]: −3.5 mm Hg | glycated hemoglobin, least-squares mean change from baseline, difference vs placebo ([2]; 400 mg per day, overall population, 24 weeks): −0.46 percentage points | placebo-adjusted systolic blood pressure, least-squared mean change ([2]; 400 mg per day, total, overall population, SE=0.57): −3.8 mm Hg | placebo-adjusted change in body weight, least-squares mean ([2]; 400 mg per day, total, overall population, after 24 weeks): -2.98 kg | placebo-adjusted change in HbA1C, least-squared mean ([2]; 400 mg per day, total, overall population, after 24 weeks, SE=0.042): −0.46% | DKA, HR (95% CI) ([2]; CKD Cohort, 24 weeks): 3.5 | Severe hypoglycemia, HR (95% CI) ([2]; CKD Cohort, 24 weeks): 1.7 | DKA, HR (95% CI) ([2]; Overall Cohort, 24 weeks): 5.5 | Severe hypoglycemia, HR (95% CI) ([2]; Overall Cohort, 24 weeks): 1.3 | DKA, % [2, 12]: (2.6) % | Severe hypoglycemia, % [2, 12]: (7.0) % | rate of documented hypoglycemia with a blood glucose level of 55 mg per deciliter (3.1 mmol per liter) or below ([2]; sotagliflozin group vs placebo group): significantly lower | albuminuria (T1D patients): reduction in albuminuria | blood pressure (T1D patients): lowered blood pressure | eGFR (T1D patients): acute change in eGFR | hemoconcentration (T1D patients): induced mild hemoconcentration | risk of diabetic ketoacidosis (DKA) (T1D patients): increased
